Source: US8552005B2, “(EN) 3-sulfonyl-pyrazolo[1,5-a] pyrimidines / antagonists of serotonin 5-HT6 receptors, methods for the production and the use thereof” (Avincuro Pharmaceuticals, Inc., priority 2008, dated 2013)

Each compound was assayed against T1, 5-HT6 receptor (Homo sapiens (Human), UniProt P50406) (assay: Competitive radioligand binding ([3H] Lysergic acid diethylamide) to serotonin 5-HT6 receptors, HeLa cell membranes). Settings: 1.5 nM [3H] Lysergic acid diethylamide, 120 min at 37° C.; read-out: IC50 in the setting of competitive binding.
Method: Determination of activity of serotonin 5-HT6 receptor antagonists of the general formula 1 in the setting of competitive binding to serotonin 5-HT6 receptors.
Screening of disclosed compounds for their potential ability to interact with serotonin 5-HT6 receptor was carried out by method of radioligand binding. For this purpose membrane species were prepared from expressing recombinant human 5-HT6 receptor HeLa cells by means of their homogenization in glass homogenizer with subsequent separation of plasmatic membranes from cell nucli, mitochondria's and cell wreckages by differential centrifugation. […] Mol. Pharmacol. 43:320-327, 1993]. […] After incubation the samples were filtered in vacuo on glass-microfiber filters G/F (Millipor, USA), filters were washed three times with cold solution of medium and radioactivity was measured by scintillation counter MicroBeta 340 (PerkinElmer, USA). […] Binding of tested compounds to the receptor was determined by their ability to displace the radioligand and expressed in percent of displacement. The percent of displacement was calculated according to the following equation:
[formula] wherein: TA—was overall radioactivity in the presence of radioligand only, CA—was radioactivity in the presence of radioligand and tested compound and NA—was radioactivity in the presence of radioligand and Serotonin (5 μM).

T1 sequence (P50406 whole entry): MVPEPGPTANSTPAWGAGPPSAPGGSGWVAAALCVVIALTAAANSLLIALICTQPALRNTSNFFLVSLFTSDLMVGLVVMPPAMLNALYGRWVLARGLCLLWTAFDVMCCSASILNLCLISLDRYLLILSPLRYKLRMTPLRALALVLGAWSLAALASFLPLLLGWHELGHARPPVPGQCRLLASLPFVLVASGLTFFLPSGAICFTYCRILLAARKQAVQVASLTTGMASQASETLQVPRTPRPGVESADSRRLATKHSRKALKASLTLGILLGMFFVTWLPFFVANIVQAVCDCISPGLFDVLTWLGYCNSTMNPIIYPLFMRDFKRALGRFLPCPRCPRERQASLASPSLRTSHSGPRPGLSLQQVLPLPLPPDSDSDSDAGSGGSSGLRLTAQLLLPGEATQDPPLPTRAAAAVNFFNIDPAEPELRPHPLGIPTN

IC50 | Structure (SMILES)
< 10 nM | CSc1nn2c(C)cc(C)nc2c1S(=O)(=O)c1ccc(F)cc1 [1.1(7), 5,7-dimethyl-2-methylsulfanyl-3-(4-fluorophenylsulfonyl)pyrazolo[1,5-a]pyrimidine]
147 nM | Cc1cc(C)n2nc(C)c(S(=O)(=O)c3ccccc3)c2n1 [1.1(13)]
510 nM | Cc1cc(C)n2ncc(S(=O)(=O)c3ccccc3)c2n1 [1.1(1), 5,7-dimethyl-3-(phenylsulfonyl)pyrazolo[1,5-a]pyrimidine]
4.61 nM | CSc1nn2c(C)cc(C)nc2c1S(=O)(=O)c1ccccc1 [1.1(5), 5,7-dimethyl-2-methylsulfanyl-3-(phenylsulfonyl)pyrazolo[1,5-a]pyrimidine]
477 nM | Cc1cc(C)n2nc(OCCO)c(S(=O)(=O)c3ccccc3)c2n1 [1.1(2)]

Same assay, conditions: 1.5 nM [3H] Lysergic acid diethylamide, 120 min at 37° C.; read-out: Ki in the setting of competitive binding

Ki | Structure (SMILES)
68.4 nM | Cc1cc(C)n2nc(C)c(S(=O)(=O)c3ccccc3)c2n1 [1.1(13)]
237 nM | Cc1cc(C)n2ncc(S(=O)(=O)c3ccccc3)c2n1 [1.1(1), 5,7-dimethyl-3-(phenylsulfonyl)pyrazolo[1,5-a]pyrimidine]
2.14 nM | CSc1nn2c(C)cc(C)nc2c1S(=O)(=O)c1ccccc1 [1.1(5), 5,7-dimethyl-2-methylsulfanyl-3-(phenylsulfonyl)pyrazolo[1,5-a]pyrimidine]
222 nM | Cc1cc(C)n2nc(OCCO)c(S(=O)(=O)c3ccccc3)c2n1 [1.1(2)]

Each compound was assayed against T1, 5-HT6 receptor (assay: Antagonistic activity towards 5-HT6 receptors: inhibition of serotonin-induced intracellular cAMP (LANCE cAMP) in HEK 293 cells). Settings: HEK293, read-out: % inhibition of 5-HT6 receptors (I, %), 10 μM solutions, serotonin-induced cAMP.
Format: cell-based
Method: Determination of antagonistic activity of compounds of general formula 1 towards 5-HT6 receptors. Compounds of general formula 1 were tested for their ability to prevent 5-HT6 receptor activation by serotonin. HEK 293 cells (cells of human embryo's kidney) with artificially expressed 5-HT6 receptor, activation of which by serotonin leads to increasing the concentration of intracellular cAMP were used. The content of intracellular cAMP was determined using reagent kit LANCE cAMP (PerkinElmer) according to the method described by the manufacturer of the kit [http://las.perkinelmer.com/content/Manuals/MAN_LANCEcAMP384KitUser.pdf].
Effectiveness of compounds was estimated by their ability to reduce the content of intracellular cAMP induced by serotonin.

Structure (SMILES) | inhibition at 10 µM
CSc1nn2c(-c3ccccc3)cc(C)nc2c1S(=O)(=O)c1ccccc1 [1(1)] | 88%
CCSc1nn2c(C)cc(C)nc2c1S(=O)(=O)c1cccc(F)c1 [1.1(10), 5,7-dimethyl-2-ethylsulfanyl-3-(3-fluorophenylsulfonyl)pyrazolo[1,5-a]pyrimidine] | 103%
CSc1nn2c(C)cc(C)nc2c1S(=O)(=O)c1ccc(F)cc1 [1.1(7), 5,7-dimethyl-2-methylsulfanyl-3-(4-fluorophenylsulfonyl)pyrazolo[1,5-a]pyrimidine] | 101%
CCSc1nn2c(C)cc(C)nc2c1S(=O)(=O)c1ccc(F)cc1 [1.1(8), 5,7-dimethyl-2-ethylsulfanyl-3-(4-fluorophenylsulfonyl)pyrazolo[1,5-a]pyrimidine] | 102%
Cc1cc(C)n2ncc(S(=O)(=O)c3ccccc3)c2n1 [1.1(1), 5,7-dimethyl-3-(phenylsulfonyl)pyrazolo[1,5-a]pyrimidine] | 78%
Cc1cc(C)n2nc(C)c(S(=O)(=O)c3ccncc3)c2n1 [1(2)] | 77%
CSc1nn2c(C)cc(C)nc2c1S(=O)(=O)c1cccc(Cl)c1 [1.1(11), 5,7-dimethyl-2-methylsulfanyl-3-(3-chlorophenylsulfonyl)pyrazolo[1,5-a]pyrimidine] | 101%
CCSc1nn2c(C)cc(C)nc2c1S(=O)(=O)c1ccccc1 [1.1(6), 5,7-dimethyl-2-ethylsulfanyl-3-(phenylsulfonyl)pyrazolo[1,5-a]pyrimidine] | 104%
Cc1cc(C)n2nc(OCCO)c(S(=O)(=O)c3ccc(F)cc3)c2n1 [1.1(4)] | 73%
CSc1nn2c(C)cc(C)nc2c1S(=O)(=O)c1ccccc1 [1.1(5), 5,7-dimethyl-2-methylsulfanyl-3-(phenylsulfonyl)pyrazolo[1,5-a]pyrimidine] | 104%
Cc1cc(C)n2nc(OCCO)c(S(=O)(=O)c3ccccc3)c2n1 [1.1(2)] | 82%
Cc1cc(C)n2nc(C)c(S(=O)(=O)c3cccnc3)c2n1 [1(3)] | 78%
CSc1nn2c(C)cc(C)nc2c1S(=O)(=O)c1cccc(F)c1 [1.1(9), 5,7-dimethyl-2-methylsulfanyl-3-(3-fluorophenylsulfonyl)pyrazolo[1,5-a]pyrimidine] | 100%
Cc1cc(C)n2nc(C)c(S(=O)(=O)c3cccs3)c2n1 [1(4)] | 69%
CSc1nn2c(C)cc(-c3ccccc3)nc2c1S(=O)(=O)c1ccccc1 [1(5)] | 68%

Now from value to compound:

inhibition at 10 µM | Structure (SMILES)
87% | CSc1nn2c(C)cc(C)nc2c1S(=O)(=O)c1ccc(N(C)C)cc1 [1.1(19)]
100% | CSc1nn2c(C)cc(C)nc2c1S(=O)(=O)c1ccc(F)c(Cl)c1 [1.1(20)]
88% | Cc1cc(C)n2nc(C)c(S(=O)(=O)c3cccc(F)c3)c2n1 [1.1(14)]
61% | CCSc1nn2c(C)cc(C)nc2c1S(=O)(=O)c1ccc(OC)cc1 [1.1(18)]
86% | Cc1cc(C)n2nc(C)c(S(=O)(=O)c3ccccc3)c2n1 [1.1(13)]
94% | CSc1nn2c(C)cc(C)nc2c1S(=O)(=O)c1ccc(Cl)cc1 [1.1(16)]
65.4% | COc1ccc(S(=O)(=O)c2c(SC)nn3c(C)cc(C)nc23)cc1 [1.1(17)]
78% | Cc1cc(C)n2nc(C)c(S(=O)(=O)c3ccc(F)cc3)c2n1 [1.1(21)]
66% | Cc1cc(C)n2nc(OCCN(C)C)c(S(=O)(=O)c3ccccc3)c2n1 [1.1(22)]
99% | CCSc1nn2c(C)cc(C)nc2c1S(=O)(=O)c1ccc(C)cc1 [1.1(15)]
101% | CCSc1nn2c(C)cc(C)nc2c1S(=O)(=O)c1cccc(Cl)c1 [1.1(12), 5,7-dimethyl-2-ethylsulfanyl-3-(3-chlorophenylsulfonyl)pyrazolo[1,5-a]pyrimidine]

Same assay, conditions: serotonin-stimulated intracellular cAMP production, read-out: IC50 in the setting of functional assay

Structure (SMILES) | IC50
CSc1nn2c(C)cc(C)nc2c1S(=O)(=O)c1ccc(F)cc1 [1.1(7), 5,7-dimethyl-2-methylsulfanyl-3-(4-fluorophenylsulfonyl)pyrazolo[1,5-a]pyrimidine] | 112 nM
Cc1cc(C)n2ncc(S(=O)(=O)c3ccccc3)c2n1 [1.1(1), 5,7-dimethyl-3-(phenylsulfonyl)pyrazolo[1,5-a]pyrimidine] | > 1000 nM
CSc1nn2c(C)cc(C)nc2c1S(=O)(=O)c1cccc(Cl)c1 [1.1(11), 5,7-dimethyl-2-methylsulfanyl-3-(3-chlorophenylsulfonyl)pyrazolo[1,5-a]pyrimidine] | 20 nM
CCSc1nn2c(C)cc(C)nc2c1S(=O)(=O)c1ccccc1 [1.1(6), 5,7-dimethyl-2-ethylsulfanyl-3-(phenylsulfonyl)pyrazolo[1,5-a]pyrimidine] | 50 nM
CSc1nn2c(C)cc(C)nc2c1S(=O)(=O)c1ccccc1 [1.1(5), 5,7-dimethyl-2-methylsulfanyl-3-(phenylsulfonyl)pyrazolo[1,5-a]pyrimidine] | 30 nM
CSc1nn2c(C)cc(C)nc2c1S(=O)(=O)c1cccc(F)c1 [1.1(9), 5,7-dimethyl-2-methylsulfanyl-3-(3-fluorophenylsulfonyl)pyrazolo[1,5-a]pyrimidine] | 25 nM

The next lines start with the values.

IC50 | Structure (SMILES)
320 nM | CCSc1nn2c(C)cc(C)nc2c1S(=O)(=O)c1ccc(OC)cc1 [1.1(18)]
230 nM | CSc1nn2c(C)cc(C)nc2c1S(=O)(=O)c1ccc(Cl)cc1 [1.1(16)]
440 nM | COc1ccc(S(=O)(=O)c2c(SC)nn3c(C)cc(C)nc23)cc1 [1.1(17)]
80 nM | CCSc1nn2c(C)cc(C)nc2c1S(=O)(=O)c1ccc(C)cc1 [1.1(15)]
